Like-named read-outs stand apart in the source and are kept apart here.
Experiments:
[1] = Digestive versus sublingual absorption, plasmatic level 1 hour after administration; type: in vivo, Rats; settings: for concentration at 1 h: rat, plasma, read-out: Plasmatic lutein concentration
Description: Taurin and Lutein plasmatic level are evaluated using HPLC process as described Lallemand F. et al, 2004 and Shanmugam S, et al, 2011, respectively.

[2] = set-up: species or system Rats (OFA, Sprague-Dawlay); settings: rat, in vivo
Description: The stick gum administered to Rats contains 5 mg of vegetal extract titrated at 25% of anthocyanosides (i.e. 1.250 μg of anthocyanosides).
The Sprague Dawley rat (10 Males) used extensively in medical research weighing 450-520 g were received and placed separately in cage in room temperature controlled (22° C.). […] Rats were maintained in dark periode condition and fed a diet (755 g/kg wheat starch, 150 g/kg casein, 50 g/kg peanut oil, 35 g/kg AlN-93M mineral mixture, 10 g/kg AlN-76A vitamin mixture) during 2 weeks (Felgines, C. et al. J. Nutr 2002).
The stick gum was deposited at the buccal mucosa area.
Peripheral blood was collected 1 hour post-administration, centrifuged and plasma was acidified through formic acid addition. After acidification, plasma samples were conserved at −80° C. and analyzed by LC-MS/MS (Liquid Chromatography—Mass Spectrometer/Mass Spectrometer).
In parallel, epithelium and conjunctive tissues were collected 45 minutes post-administration, placed in formic acid and eventually conserved at −80° C. Before LC-MS/MS analyze, tissues were washed in PBS (phosphate buffered saline) and homogenized on ice. Protein concentrations were determined by Lowry method. To facilitate tissues preparation, samples were homogenized and treated with 2.5% trypsin and 2% collagenase during 1.5 h at 37° C., and then acidified with formic acid. […]

Compound	absorption, lingual way as compared to the digestive way ([1]; Example 5, rats)	concentration at 1 h ([1]; oral, Digestive, 6 mg/kg)	concentration at 1 h ([1]; oral, Digestive, 12 mg/kg)	concentration at 1 h ([1]; other: sublingual, Sublingual, 6 mg/kg)	concentration at 1 h ([1]; other: sublingual, Sublingual, 12 mg/kg)	absorption in the tissues and in the plasma [2]
CC1=C[C@H](O)CC(C)(C)[C@H]1/C=C/C(C)=C/C=C/C(C)=C/C=C/C=C(C)/C=C/C=C(C)/C=C/C1=C(C)C[C@@H](O)CC1(C)C [lutein, Lutein]	more effective	0.034 µg/mL	0.032 µg/mL	0.12 µg/mL	0.16 µg/mL	–
Anthocyanin	–	–	–	–	–	significantly absorbed

Reference: patent publication US20130115174A1, “TRANSMUCOSAL COMPOSITION CONTAINING ANTHOCYANINS FOR ALLEVIATING A VISUAL DISCOMFORT” (priority 2010, published 2013)
